Results taken from ChEMBL document CHEMBL3112516, “Design, synthesis and biological evaluation of novel peptide MC62 analogues as potential antihyperglycemic agents” (2014).
The source made the active and inactive calls. No cut-off for these calls is given here.

Experiments:
Mus musculus [1] = assay: Antihyperglycemic activity in overnight fasted STZ-induced diabetic mouse model assessed as blood glucose level at 1 umol/kg, ip qd administered for 20 days measured after 20 days relative to control; assay type: functional
Mus musculus [2] = assay: Antihyperglycemic activity in overnight fasted STZ-induced mouse model assessed as reduction of fasting blood glucose level at 1 umol/kg, ip administered for 20 days measured every 5 days up to 20 days; assay type: functional, organism-based
Mus musculus [3] = assay: Antioxidant activity in STZ-induced mouse model assessed as SOD level at 1 umol/kg, ip administered for 20 days measured on day 21 (reference value: 41.58 +/- 2.89 U/ml); assay type: functional
Mus musculus [4] = assay: Antihyperglycemic activity in overnight fasted STZ-induced mouse model assessed as decrease in glycated hemoglobin level at 1 umol/kg, ip administered for 20 days measured on day 21; assay type: functional, organism-based
Mus musculus [5] = assay: Antihyperglycemic activity in STZ-induced mouse model assessed as decrease in body weight at 1 umol/kg, ip administered for 20 days measured every 5 days up to 20 days; assay type: functional, organism-based
Mus musculus [6] = assay: Antioxidant activity in STZ-induced mouse model assessed as GSH level at 1 umol/kg, ip administered for 20 days measured on day 21 (reference value: 8.13 +/- 0.13 mg/ml); assay type: functional
MIN6 [7] = assay: Inhibition of palmitate-induced apoptosis in mouse MIN6 cells assessed as reduction of apoptotic cells at 10 nM preincubated for 24 hrs followed by palmitate challenge measured after 1 hr by Hoechst 33342 staining-based microscopic analysis; assay type: functional, cell-based
Mus musculus [8] = assay: Antioxidant activity in STZ-induced mouse model assessed as MDA level at 1 umol/kg, ip administered for 20 days measured on day 21 (reference value: 12.49 +/- 1.35 nmol/ml); assay type: functional
Mus musculus [9] = assay: Antihyperglycemic activity in STZ-induced mouse model assessed as decrease in water intake at 1 umol/kg, ip administered for 20 days measured every 5 days up to 20 days; assay type: functional, organism-based
MIN6 [10] = assay: Inhibition of H202-induced apoptosis in mouse MIN6 cells assessed as change in nuclear fragmentation at 10 nM preincubated for 24 hrs followed by H202 challenge measured after 1 hr by Hoechst 33342 staining-based microscopic analysis; assay type: functional, cell-based
Mus musculus [11] = assay: Antihyperglycemic activity in STZ-induced mouse model assessed as increase in islet number at 1 umol/kg, ip by hematoxylin and eosin staining technique; assay type: functional, organism-based
Mus musculus [12] = assay: Antihyperglycemic activity in mouse assessed as decrease in blood glucose level at 1 umol/kg, ip pretreated with compound followed by glucose challenge measured after 30 to 60 mins by oral glucose tolerance test; assay type: functional, organism-based
Mus musculus [13] = assay: Antihyperglycemic activity in STZ-induced mouse model assessed as decrease in food intake at 1 umol/kg, ip administered for 20 days measured every 5 days up to 20 days; assay type: functional, organism-based
Mus musculus [14] = assay: Antioxidant activity in STZ-induced mouse model assessed as GSH-PX level at 1 umol/kg, ip administered for 20 days measured on day 21 (reference value: 1449.23 +/- 49.42 U/ml); assay type: functional

| Substance | Activity (Mus musculus [1]) [mmol/L] | other results |
| --- | --- | --- |
| H-KTNMGHMAGAA-OH | 18.52 | – |
| H-GTNMKHMAGAA-OH | 15.26 | – |
| H-KTNMKHMAGAA-OH | 16.16 | – |
| H-KTNMKGMAGMA-OH | 17.38 | – |
| H-KTNMKHGAGAA-OH | 21.82 | – |
| H-KTNMKHMGGAA-OH | 18.02 | – |
| H-KTNMKGMAMAA-OH | 14.03 | – |
| H-KTNGKHMAGAA-OH | 18.34 | – |
| H-KTNMKGMAGAM-OH | 20.18 | – |
| H-KTMMKGMAGAA-OH | 11.8 | Activity (Mus musculus [2]): Active; Activity (Mus musculus [3]): 46.96 U/ml; Activity (Mus musculus [4]): Active; Activity (Mus musculus [5]): Active; Activity (Mus musculus [6]): 12.14 mg/mL; Activity (MIN6 [7]): Active; Activity (Mus musculus [8]): 7.61 nmol/mL; Activity (Mus musculus [9]): Active; Activity (MIN6 [10]): Active; Activity (Mus musculus [11]): Active; Activity (Mus musculus [12]): Active; Activity (Mus musculus [13]): Active; Activity (Mus musculus [14]): 1707.69 U/ml |
| H-KGNMKHMAGAA-OH | 15.28 | – |
| H-KTNMKGMAGAA-OH | 13.29 | – |
| H-KTGMKHMAGAA-OH | 14.36 | – |
| H-KMNMKGMAGAA-OH | 13.44 | – |
| H-MTNMKGMAGAA-OH | 20.83 | – |
